One block for each compound: values may come before it.
Legend:
ERp44 [1] = target: T1, ERp44 (Homo sapiens, UniProt Q9BS26); experiment: In vitro binding assay with recombinant purified ERp44; settings: FIG. 3D
T1 sequence (Q9BS26 30-406): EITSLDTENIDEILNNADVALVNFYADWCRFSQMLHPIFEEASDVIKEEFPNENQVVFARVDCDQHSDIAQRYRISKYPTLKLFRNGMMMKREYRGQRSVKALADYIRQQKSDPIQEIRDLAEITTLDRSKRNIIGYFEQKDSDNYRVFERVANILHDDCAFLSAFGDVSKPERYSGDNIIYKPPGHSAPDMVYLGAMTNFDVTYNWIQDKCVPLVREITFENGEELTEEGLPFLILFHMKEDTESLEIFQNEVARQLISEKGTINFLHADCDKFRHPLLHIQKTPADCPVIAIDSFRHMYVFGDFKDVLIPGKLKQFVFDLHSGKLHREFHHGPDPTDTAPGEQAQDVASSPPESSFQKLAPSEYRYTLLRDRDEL
Experimental: (§1) Purified His6-AGR2 or His6-AGR2 C81S, as prepared above, or His6-AGR2 (PRO-580) or His6-AGR3 (PRO-242) obtained from ProSpec (New Brunswick NJ) were incubated with or without varying concentrations of the unlabeled DDA competitors, tcyDTDO or dMtcyDTDO, and 30 μM Biotin-GlyPyrDTDO or Biotin-PyrDTDO in buffer (20 mM HEPES (pH 7.4), 1 mM EDTA, 1 mM EGTA, 5% Glycerol, 1 nM Microcystin, 1 mM Na3VO4, and 40 mM Na2H2P2O7) containing 1% Triton-X 100 for 30 min at 37° C. […] Therefore, the two probes were used interchangeably. Reactions were stopped by boiling the samples in 2×-SDS-Sample Buffer containing 100 mM NEM for 10 min. Biotin-DDA labeling of protein was verified by blotting with Streptavidin-Alkaline Phosphatase (Rockland Immunochemicals, Inc., Limerick, PA). ERp44 (PRO-547) and PDIA1 (ENZ-262) were obtained from ProSpec and used in experiments examining the binding of these proteins to Biotin-PyrDTDO.

PDIA1 [2] = target: T2, PDIA1 (Homo sapiens, UniProt P07237); experiment: In vitro binding assay with recombinant purified PDIA1; settings: FIG. 3D
Experimental: as §1

ERp5 = target: T3, ERp5 (Homo sapiens, UniProt Q15084); experiment: Biotin-PyrDTDO/Streptavidin-agarose pulldown from treated cells; assay type: cell-based; settings: FIG. 10A
T3 construct: endogenous in cells
Experimental: (§2) Cells were treated with Biotin-PyrDTDO with or without the pan-Caspase inhibitor Q-VD-OPH (MedChemExpress, Monmouth Junction, NJ) for 16 h in 10% FBS-DMEM, followed by the addition of 25 mM N-ethylmaleimide (NEM) (Thermo Scientific, Rockford, IL) for 20 min at 37° C. Cells were subsequently scraped directly into the media, washed twice with ice-cold PBS, and pelleted by centrifugation. Cells were extracted in buffer (20 mM HEPES (pH 7.4), 1 mM EDTA, 1mM EGTA, 5% Glycerol, 1 nM Microcystin, 1 mM Na3VO4, and 40 mM Na2H2P2O7) containing 1% Triton X-100. Samples were sonicated, followed by centrifugation for 20 min at 4° C. The supernatant was pre-cleared with Sepharose CL-6B (Amersham Biosciences AP, Uppsala, Sweden) for 2 h at 4° C. Pre-cleared samples were then incubated with Streptavidin (SA)-Agarose (Thermo Scientific, Rockford IL) and mixed on a Nutator for 24 h at 4° C. SA-Agarose was washed three times with extraction buffer containing 0.1% Triton X-100, followed by the addition of 2×-SDS Sample buffer containing 2 mM biotin. Samples were analyzed by immunoblot, silver stain, or probing with Streptavidin-Alkaline Phosphatase.

ERp57 = target: T4, ERp57 (Homo sapiens, UniProt P30101); experiment: as above; assay type: cell-based; settings: FIG. 10A
T4 construct: endogenous in cells
Experimental: as §2

[3] = tested on: proteins in intact cells and purified proteins in vitro; experiment: Preliminary studies of biotinylated DDA protein labeling
Experimental: as §1

AGR2 [4] = target: T5, AGR2 (Homo sapiens, UniProt O95994); experiment: Biotin-PyrDTDO/Streptavidin-agarose pulldown from treated cells; assay type: cell-based; set-up: expressed in transfected cells; settings: T47D and BT474 cells, 100 μM, 16 h, FIG. 3C left
T5 sequence (O95994 21-175): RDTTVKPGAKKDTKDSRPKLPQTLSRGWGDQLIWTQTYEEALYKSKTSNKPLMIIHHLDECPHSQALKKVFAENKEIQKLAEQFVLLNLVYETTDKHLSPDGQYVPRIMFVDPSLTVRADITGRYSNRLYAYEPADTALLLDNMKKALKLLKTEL
Experimental: as §2

ERp44 [5] = target: T1, ERp44; experiment: as above; assay type: cell-based; set-up: endogenous in cells; host or cells: MDA-MB-468, BT474, T47D; settings: for ERp44 in Streptavidin-Agarose pulldown: 100 μM, 16 h
Experimental: as §2

PDIA1 [6] = target: T2, PDIA1; experiment: as above; assay type: cell-based; set-up: endogenous in cells; host or cells: MDA-MB-468, BT474, T47D; settings: for PDIA1 in Streptavidin-Agarose pulldown: 100 μM, 16 h
Experimental: as §2

[7] = tested on: MDA-MB-468 and BT474 cells; experiment: Immunoblot analysis of treated cells (FIG. 9D); assay type: cell-based; settings: 24 h
From the text: The BT20, BT474, BT549, MCF7, MDA-MB-231, MDA-MB-436, MDA-MB-468, HCC1143, HCC1500, HCC1569, HCC1937, HCC1954, Hs578t, and T47D cells lines were purchased from American Type Culture Collection (ATCC) (Manassas, VA). The HCI-001 cell line was derived from an ER-/PR-/HER2- patient-derived xenograft originally isolated from a patient as described previously (DeRose Y S, et al. Nat Med 2011; 17: 1514-1520). The HCI-001/LVM2 model was derived from the HCI-001 cell line by performing two rounds of selection for liver metastasis, as described previously (Wang M, et al. Cell Death Discovery 2019; 5: 153). Cell lines were grown in Dulbecco's Modified Eagle's Medium (GE Healthcare Life Sciences, Logan, UT) containing 10% fetal bovine serum (10% FBS—DMEM) in a humidified incubator with 5% CO2 at 37° C. Cell lysates were prepared as described previously (Law B K, et al. Mol Cell Biol. 2002; 22: 8184-8198). […]

[8] = tested on: HCI-001/LVM2 breast tumors and associated liver metastases; experiment: HCI-001/LVM2 breast tumor liver metastasis study, H&E staining of livers; assay type: in vivo, mice; settings: 20 mg/kg oral gavage once daily, four consecutive days; necrosis not observed in vehicle treated tumors
Experimental: Breast cancer liver metastasis was initiated in NOD-SCID-gamma (NSG) mice obtained from Jackson Laboratories (Bar Harbor, ME) by injecting 1×10^6 cancer cells into the #4 mammary fat pads as described previously (Wang M, et al. Cell Death Discovery 2019; 5: 153). Mice bearing HCI-001/LVM2 breast tumors were treated once daily for four consecutive days with 20 mg/kg tcyDTDO by oral gavage and livers were collected. Animals bearing HER2+ BT474 tumors were treated with the vehicle or 20 mg/kg dMtcyDTDO or dFtcyDTDO by intraperitoneal injection for four consecutive days. Tissue samples fixed in 4% paraformaldehyde/PBS and paraffin-embedded were sectioned and stained with hematoxylin and eosin (H&E) by the University of Florida Molecular Pathology Core (https://molecular.pathology.ufl.edu/).

C81S AGR2 mutant = target: T6, C81S AGR2 mutant (Homo sapiens, UniProt O95994, C81S); experiment: DDA-AGR2 binding assay, C81S mutant; settings: FIG. 2D
T6 construct: made in house; host or cells: E. coli BL21(DE3), pET-45b(+)
Experimental: Total RNA from BT474 cells was extracted with TRIzol Reagent (Invitrogen, Waltham, MA) according to the manufacturer's protocol. Total cellular RNA was used to synthesize first-strand cDNA by using the PCR conditions listed: 25° C. for 10 min, 42° C. for 30 min, and 95° C. for 5 min. PCR was subsequently performed using the following AGR2 primers: 5′-[…]-3′ and 5′-[…]-3′. The PCR fragment encoding AGR2 was subsequently digested with BamHI and SnaBI and cloned into the 5′ BamHI and 3′ SnaBI sites of pMXs-IRES-Blasticidin. The AGR2/pMXs-IRES-Blasticidin vector was used as a template for PCR reactions using the following AGR2 primers to amplify the DNA sequence downstream of the AGR2 signal sequence and to add 5′-BamHI and 3′-SalI sites: 5′-[…]-3′ and 5′-[…]-3′. The PCR fragment was digested with BamHI and SalI and cloned into the 5′ BamHI and 3′ SalI sites of pET-45b(+) (Novagen Burlington, MA). QuikChange mutagenesis was performed to produce the C81S mutation of AGR2 using the follow primers: 5′- […]-3′ and 5′-[…]-3′. The C81S mutation of AGR2 was verified by sequencing.
Competent BL21(DE3) cells were transformed with either the AGR2/pET-45b(+) or AGR2 C81S/pET-45b(+) vectors. Protein expression was induced by the addition of 50 µM Isopropyl β-D-1-thiogalactopyranoside (Fisher Scientific, Fair Lawn, NJ) to bacterial cell cultures for 2.5 hours and shaking at 37° C. […]

AGR3 = target: T7, AGR3 (Homo sapiens, UniProt Q8TD06); experiment: DDA binding assay with AGR3; settings: FIG. 2D
T7 construct: His6 (N); purchased ProSpec PRO-242
Experimental: as §1

AGR2 [9] = target: T5, AGR2; experiment: DDA-AGR2 binding assay, Streptavidin-Alkaline Phosphatase blot; set-up: made in house; host or cells: E. coli BL21(DE3), pET-45b(+); settings: 37° C., non-reducing SDS-PAGE, FIG. 2B
Experimental: Competent BL21(DE3) cells were transformed with either the AGR2/pET-45b(+) or AGR2 C81S/pET-45b(+) vectors. Protein expression was induced by the addition of 50 µM Isopropyl β-D-1-thiogalactopyranoside (Fisher Scientific, Fair Lawn, NJ) to bacterial cell cultures for 2.5 hours and shaking at 37° C. Bacterial cells were subsequently pelleted and dissolved in Mouse Tonicity Phosphate Buffered Saline (MTPBS) containing 1% Triton X-100 and sonicated for 20 seconds on ice, followed by centrifugation for 10 min at 4° C. to pellet cell debris. The supernatant was transferred to a new tube, followed by the addition of TALON Resin (Clontech, Mountain View, CA) and mixing on a Nutator for 30 min at 4° C. The TALON Resin was pelleted by centrifugation and washed twice with MTPBS and twice with MTPBS containing 30 mM Imidazole. Protein bound to the TALON Resin was eluted with 400 mM Imidazole and precipitated with 60% saturated ammonium sulfate. The precipitated protein was pelleted by centrifugation, dissolved in MTPBS containing 1 mM DTT and 1 mM EDTA, and subsequently dialyzed against a solution of MTPBS containing 10 μM DTT and 30% Glycerol.
as §1

[10] = MDA-MB-468 cells, FIG. 3C right
[11] = T47D and BT474 cells, FIG. 3C left

T2 sequence (P07237 18-508): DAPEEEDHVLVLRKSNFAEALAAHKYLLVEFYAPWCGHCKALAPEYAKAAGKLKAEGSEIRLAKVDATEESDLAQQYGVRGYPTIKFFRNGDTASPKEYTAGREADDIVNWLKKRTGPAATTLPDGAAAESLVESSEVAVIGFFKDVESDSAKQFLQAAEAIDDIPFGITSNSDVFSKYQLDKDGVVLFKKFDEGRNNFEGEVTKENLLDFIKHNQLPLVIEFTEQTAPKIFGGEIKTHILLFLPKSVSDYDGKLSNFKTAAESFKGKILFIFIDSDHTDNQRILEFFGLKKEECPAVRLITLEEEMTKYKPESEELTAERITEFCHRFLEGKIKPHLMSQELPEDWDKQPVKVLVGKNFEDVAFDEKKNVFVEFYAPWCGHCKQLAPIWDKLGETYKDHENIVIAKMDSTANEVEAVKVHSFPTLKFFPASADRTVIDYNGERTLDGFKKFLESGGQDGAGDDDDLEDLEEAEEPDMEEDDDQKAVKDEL
T6 sequence (O95994 21-175 C81S): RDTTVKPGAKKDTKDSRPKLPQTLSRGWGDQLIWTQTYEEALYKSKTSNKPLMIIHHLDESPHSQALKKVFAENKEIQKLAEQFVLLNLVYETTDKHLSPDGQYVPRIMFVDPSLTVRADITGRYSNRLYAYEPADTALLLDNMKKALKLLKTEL
T3 sequence (Q15084 20-440): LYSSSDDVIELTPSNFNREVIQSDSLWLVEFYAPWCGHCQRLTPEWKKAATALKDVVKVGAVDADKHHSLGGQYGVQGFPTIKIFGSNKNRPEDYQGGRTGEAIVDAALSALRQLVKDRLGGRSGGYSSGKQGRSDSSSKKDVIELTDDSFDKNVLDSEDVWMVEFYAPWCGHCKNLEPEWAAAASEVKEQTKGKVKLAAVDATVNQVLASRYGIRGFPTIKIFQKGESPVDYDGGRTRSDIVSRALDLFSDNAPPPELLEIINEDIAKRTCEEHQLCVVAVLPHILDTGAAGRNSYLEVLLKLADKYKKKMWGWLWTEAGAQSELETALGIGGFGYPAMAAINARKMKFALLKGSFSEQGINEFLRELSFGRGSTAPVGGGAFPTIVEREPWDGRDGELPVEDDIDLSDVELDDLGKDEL
T4 sequence (P30101 25-505): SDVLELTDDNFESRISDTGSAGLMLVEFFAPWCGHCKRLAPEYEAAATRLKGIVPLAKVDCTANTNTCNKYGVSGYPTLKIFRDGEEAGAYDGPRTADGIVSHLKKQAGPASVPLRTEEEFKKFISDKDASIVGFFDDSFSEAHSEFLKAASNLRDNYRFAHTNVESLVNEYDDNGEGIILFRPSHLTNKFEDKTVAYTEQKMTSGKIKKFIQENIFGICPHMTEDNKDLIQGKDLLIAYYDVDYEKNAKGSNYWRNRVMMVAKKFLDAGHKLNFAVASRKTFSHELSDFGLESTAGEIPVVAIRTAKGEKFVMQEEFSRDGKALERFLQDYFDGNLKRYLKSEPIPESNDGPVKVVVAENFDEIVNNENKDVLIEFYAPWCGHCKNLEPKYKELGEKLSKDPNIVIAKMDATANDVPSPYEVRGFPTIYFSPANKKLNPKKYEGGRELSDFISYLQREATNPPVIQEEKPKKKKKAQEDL
T7 sequence (Q8TD06 22-166): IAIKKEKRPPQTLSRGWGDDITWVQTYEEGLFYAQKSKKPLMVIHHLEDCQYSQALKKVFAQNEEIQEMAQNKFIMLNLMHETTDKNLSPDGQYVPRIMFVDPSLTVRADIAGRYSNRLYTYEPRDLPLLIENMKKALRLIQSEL

Labeling of ERp44 by biotinylated DDA (ERp44 [1]): labeled ERp44 and PDIA1
Labeling of PDIA1 by biotinylated DDA (PDIA1 [2]): labeled ERp44 and PDIA1
ERp5 in additional pulldown experiments (ERp5): ERp57 and ERp5 were not
ERp57 in additional pulldown experiments (ERp57): ERp57 and ERp5 were not
AGR2 in Streptavidin-Agarose pulldown (AGR2 [4]): isolated
ERp44 in additional pulldown experiments (ERp44 [5]; FIG. 10A): detected
ERp44 in Streptavidin-Agarose pulldown (ERp44 [5]; [10]): affinity purified ERp44 and PDIA1
ERp44 in Streptavidin-Agarose pulldown (ERp44 [5]; [11]): isolated
PDIA1 in additional pulldown experiments (PDIA1 [6]; FIG. 10A): detected
PDIA1 in Streptavidin-Agarose pulldown (PDIA1 [6]; [10]): affinity purified ERp44 and PDIA1
PDIA1 in Streptavidin-Agarose pulldown (PDIA1 [6]; [11]): isolated
Structure (SMILES): O=C1N[C@H]2[C@H](CS[C@H]2CCCCC(=O)N2C[C@@H]3CS(=O)(=O)SC[C@H]3C2)N1 (mixture of isomers) [Biotin-PyrDTDO, (3aS,4S,6aR)-4-(5-((4aR,7aR) and (4aS,7aS)-2,2-dioxidotetrahydro-1H-[1,2]dithiino[4,5-c]pyrrol-6(4H)-yl)-5-oxopentyptetrahydro-1H-thieno[3,4-d]imidazol-2(3H)-one]
Labeling of proteins, comparison of the two biotinylated probes [3]: indistinguishable labeling of proteins in intact cells and purified proteins in vitro

Structure (SMILES): CC(C)(C)OC(=O)N1C[C@@H]2CS(=O)(=O)SC[C@H]2C1 (racemic) [(±)-BocPyrDTDO, tert-Butyl-(4aS,7aS)- and (4aR,7aR)-tetrahydro-1H-[1,2]dithiino[4,5-e]pyrrole-6(4H)-carboxylate 2,2-dioxide]
Biological activity and potency compared with DTDO [7]: biologically active and showed a potency similar to DTDO

Structure (SMILES): O=S1(=O)CC2CCCCC2CS1 (stereo not drawn) [tcyDTDO]
Liver metastases, H&E histology [8]: exhibited central necrosis

Labeling of C81S AGR2 mutant by biotinylated DDA (C81S AGR2 mutant): not labeled
Structure (SMILES): O=C(CCCC[C@@H]1SC[C@@H]2NC(=O)N[C@@H]21)NCC(=O)N1C[C@@H]2CS(=O)(=O)SC[C@H]2C1 (racemic) [Biotin-GlyPyrDTDO, N-(2-((4aS,7aS)- and (4aR,7aR)-2,2-Dioxidotetrahydro-1H-[1,2]dithiino[4,5-c]pyrrol-6(4H)-yl)-2-oxoethyl)-5-((3aS,4S,6aR)-2-oxohexahydro-1H-thieno[3,4-d]imidazol-4-yl)pentanamide]
Labeling of AGR3 by biotinylated DDA (AGR3): also labeled
Labeling of proteins, comparison of the two biotinylated probes [3]: indistinguishable labeling of proteins in intact cells and purified proteins in vitro
Labeling of AGR2 by biotinylated DDA (AGR2 [9]): labeled AGR2 in a concentration-dependent manner

— patent US20240118281A1, “ANTICANCER COMPOUNDS AND USES THEREOF” (University of Florida Research Foundation, Incorporated, priority 2021, published 2024)
